# Test results: patent US20080096858A1, “Method of Stabilizing Disordered Cefovecin Sodium Salt” (UNIVERSITY OF CONNECTICUT, priority 2004, published 2008)
# What was measured:
# [1] = Storage stability at 40° C. for 6 months of cefovecin sodium salt annealed at 60° C., monitored by RP-HPLC (Example 2)
# Method: (§1) Reverse Phase High Performance Liquid Chromatography (RP-HPLC) was used to monitor degradation of cefovecin sodium salt. HPLC was carried out with a Waters Alliance (Milford, Mass.) system with a UV detector set at 256 nm and a Kromasil C4 column 4.6×250 mm, 5 μm, 100 angstrom pore size (Waters, Milford, Mass.). Column temperature was 30±2° C. and the samples were maintained in the auto sampler at 5±3° C. and the flow rate was 1 mL/min. Gradient method was used with mobile phase A consisting of (9:1) 0.025M sodium phosphate buffer solution, pH 6.5: acetonitrile in HPLC grade water, and mobile phase B consisting of (4:6) 0.025M sodium phosphate buffer solution, pH 6.5: acetonitrile in HPLC grade water.
# (§2) The lyophilized cake was dissolved in WFI, and the solution was injected into the HPLC column. Contents of cefovecin sodium salt and a main degradant with relative retention time of approximately 1.6 were calculated as Ac/ΣAi, where Ac is the peak area of either cefovecin sodium salt or the degradant, and ΣAi is a total area of all chromatographic peaks. […] Stability data obtained for two annealed samples and the control sample are graphically illustrated in FIG. 1.
# Amorphous lyophilized cefovecin sodium salt was annealed in sealed vials at 60° C. for 300 min in a contract lab, UCONN, Storrs, Conn. Untreated samples (control), and annealed samples were placed on stability at 40° C. for 6 months. Reverse Phase High Performance Liquid Chromatography was used to monitor degradation as described in Example 1.
# [2] = Storage stability at 40° C. of cefovecin sodium salt annealed at 75° C., monitored by RP-HPLC (Example 1); conditions: for relative rate constant k/k0 / degradation rate constant k: storage at 40° C.; for degradation rate constant k: zero-order model, SD in ( )
# Method: Cefovecin sodium salt was dissolved in WFI at a concentration of 200 mg cefovecin sodium salt/ml. This solution was filtered using 0.22μ sterilized filters. 4.25 ml of this solution was volumetrically filled in the laminar flow hood into a 20-ml Flint Type I Tubular Treated Vials. 20 mm Lyophile D777-1, B2TR FluoroTec Single Vent Stoppers were partially inserted in the vials. The vials were lyophilized using Vertis freeze dryer (Gardiner, N.Y.) using the following cycle: frozen at −40° C. followed by vacuum drying at the shelf temperature of −18° C. for approximately 42 hours, and 60 millitore vacuum; secondary dried at a temperature of 40° C. for approximately 12 hours and 60 millitore vacuum. The lyophilizer chamber was back flushed with nitrogen and the vials were capped and sealed with aluminum shells.
# Amorphous lyophilized cefovecin sodium salt was annealed in sealed vials at 75° C. for 20 and 60 min. The sealed vials with untreated cefovecin sodium salt (control), and vials with annealed cefovecin sodium salt were stored at 40° C. at ambient humidity for 6 and 12 weeks.
# as §1, §2
# In addition, relative rate constants, k/k0 (where k0 is the rate constant of the control) were calculated in relation to control. The k/k0 are plotted in FIG. 2 as a function of annealing time at 75° C.
# [3] = HPLC purity of thermally treated freeze-dried cefovecin sodium salt (Example 3, Table 3)
# Method: as §1, §2
# A freeze-dried formulation that contains cefovecin sodium salt was prepared as follows. Cefovecin sodium salt was dissolved in citrate buffer at pH 6.7. […] The solution contained 200 mg/ml of cefovecin sodium salt, 50 mM citrate buffer, 4.5 mg/ml methylparaben, and 0.5 mg/ml propylparaben. The solution was filled in 20 ml glass vials, 4.25 ml/vial. The vials were partially stoppered with single-vent D777-1 and loaded into a freeze-drier (Hull 450 FXS800S, Warminster, Pa.). The solution was frozen at −40° C. followed by primary drying at the shelf temperature of −10° C. and approximately 200 millitore vacuum; after the product temperature approached −12° C., secondary drying was performed at shelf temperature 40° C. for approximately 12 hours and 200 millitore vacuum. Lyophilized cefovecin sodium salt was prepared in a contract facility, SmithKline Beecham Corporation, Conshocken, Pa. […] The lyophilized samples were annealed in sealed vials at 160° C. for 120 min and 170° C./45 min. The untreated samples (control), and annealed samples were tested by HPLC; HPLC conditions are described in Example 1.
# [4] = Physical form (crystallization) during thermal treatment; format: physicochemical; conditions: thermal treatment according to the invention; material remained amorphous
# [5] = annealed at 60° C.; stability study at 25 and 40° C.; cited from earlier work
# [6] = after storage 6 months at 40° C., annealed at 60° C.
# [7] = after storage 12 weeks at 40° C., ambient humidity, annealed at 75° C.
# [8] = 0 min annealing at 75° C. (control)
smiles,measurement,setting,value
CO/N=C(\C(=O)N[C@@H]1C(=O)N2C(C(=O)[O-])=C([C@@H]3CCCO3)CS[C@H]12)c1csc(N)n1.[Na+] [cefovecin sodium salt],dimer level of annealed sample compared with control,[1]; [6],lower
same,purity of annealed sample compared with control,[1]; [6],higher
same,purity (cefovecin sodium salt),"[1]; annealed 60° C. 300 min, 0 months at 40° C.",98.11 area %
same,purity (cefovecin sodium salt),"[1]; annealed 60° C. 300 min, 6 months at 40° C.",96.49 area %
same,effect of annealing on stability,[1]; annealing at 60° C.,increased the stability
same,purity (cefovecin sodium salt),"[1]; control (not annealed), 0 months at 40° C.",98.35 area %
same,purity (cefovecin sodium salt),"[1]; control (not annealed), 6 months at 40° C.",96.35 area %
same,dimer level of annealed samples compared with control,[2]; [7],lower
same,overall purity of annealed samples compared with control,[2]; [7],higher
same,degradation caused by annealing (initial time points),"[2]; annealing 20 and 60 min at 75° C., lower purity, higher dimer",some degradation
same,effect of annealing on stability,[2]; annealing at 75° C.,increased the stability
same,relative rate constant k/k0,[2]; [8],1.00
same,degradation rate constant k,[2]; [8],−0.12 (0.01) %/week
same,relative rate constant k/k0,[2]; annealed 20 min at 75° C.,0.82
same,degradation rate constant k,[2]; annealed 20 min at 75° C.,−0.095 (0.006) %/week
same,relative rate constant k/k0,[2]; annealed 60 min at 75° C.,0.71
same,degradation rate constant k,[2]; annealed 60 min at 75° C.,−0.082 (0.005) %/week
same,Purity,[3]; after annealing 60° C./300 min (Example 2),98.1 area %
same,Purity,[3]; after annealing 75° C./20 min (Example 1),97.5 area %
same,Purity,[3]; after annealing 75° C./60 min (Example 1),97.5 area %
same,Purity,"[3]; after annealing 160° C./120 minutes, freeze-dried formulation with citrate buffer, methylparaben, propylparaben (Example 3)",69.8 area %
same,Purity,"[3]; after annealing 170° C./45 minutes, freeze-dried formulation with citrate buffer, methylparaben, propylparaben (Example 3)",70.3 area %
same,degradation caused by annealing,[3]; annealing at 160° C. and 170° C.,unacceptable levels of degradation
same,degradation caused by thermal treatment compared with examples 1 and 2,[3]; treatment at both 160° C. and 170° C.,significant degradation
same,crystallization during thermal treatment,[4],did not occur
"CO[C@@]1(NC(=O)C(C(=O)[O-])c2ccc(O)cc2)C(=O)N2C(C(=O)[O-])=C(CSc3nnnn3C)COC21.[Na+].[Na+] (some centres unmarked) [moxalactam, moxalactam (di-sodium salt)]",rate of decarboxylation of annealed sample compared with control,[5],lower
